Measured values reported in patent US20230123334A1, “AMINO LIPID COMPOUND, PREPARATION METHOD THEREFOR, AND APPLICATION THEREOF” (SHENZHEN SHENXIN BIOTECHNOLOGY CO., LTD., priority 2020, published 2023).

The molecules below were run on HEK293 cells (assay: Preliminary screening as mRNA vectors, EGFP mRNA transfection of HEK293 cells). Details: EGFP mRNA 50 ng per well, 96-well plates; percentage of GFP fluorescent cells relative to total number of cells (Hoechst).
Assay type: cell-based
Summary of the method: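 HEK293 cells in DMEM plus 10% FBS transfected in 96-well format with 50 ng EGFP mRNA per well; Lipofectamine2000 served as positive control. Read-out is the percentage of GFP-fluorescent cells among total cells, counted by Hoechst nuclear stain.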

SMILES	Absolute mRNA transfection efficiency in HEK293 cells [%]
CCCCCCCCCCCCSc1nc(NCCCN2CCN(C)CC2)nc(N(CCCCCCCCCCCC)CCCCCCCCCCCC)n1 [D9S12^2N12]	0.8
CCCCCCCCCCCCSc1nc(NCCCCCCCCC)nc(NCC2CCN(C)CC2)n1 [Compound D10S12N9]	17.5
CCCCCCCCCCCCSc1nc(NCCCCCCCCCCC)nc(NCCCN2CCOCC2)n1 [Compound D8S12N11]	0.4
CCCCCCCCCCCCCCSc1nc(NCCN2CCN(C)CC2)nc(SCCCCCCC)n1 [Compound D5S7S14]	63.7
CCCCCCCCCCCCCNc1nc(NCCN(C)C)nc(SCCCCCCCCCCCC)n1 [Compound D1S12N13]	1.2
CCCCCCCCCCCCCCSc1nc(NCCCCCCCCCCCCC)nc(NCCN(C)C)n1 [Compound D1S14N13]	6.0
CCCCCCCCCCCCCCCCCCNc1nc(NCCN2CCCC2)nc(SCCCCCCC)n1 [Compound D3S7N18]	39.8
CCCCCCCCCCCCCCCCNc1nc(NCCN2CCCC2)nc(SCCCCCCC)n1 [Compound D3S7N16]	25.0
CCCCCCCCCCCCCCSc1nc(NCCN(CC)CC)nc(SCCCCCC)n1 [Compound D7S6S14]	3.8
CCCCCCCCCCCCSc1nc(NCCCCCC)nc(NCCN2CCCC2)n1 [Compound D3S12N6]	0.0
CCCCCCCCCNc1nc(NCCN2CCCCC2)nc(SCCCCCCC)n1 [Compound D4S7N9]	4.9
CCCCCCCCCCCCCCCCSc1nc(NCCCCCCCCCCCCCCC)nc(NCCN2CCCCC2)n1 [Compound D4S16N15]	0.1
CCCCCCCCCCCCCCSc1nc(NCCCCCCC)nc(NCCN2CCCCC2)n1 [Compound D4S14N7]	4.5
CCCCCCCCCCCCCCCNc1nc(NCCCN2CCN(C)CC2)nc(SCCCCCCCCCCCCCC)n1 [Compound D9S14N15]	0.5
CCCCCCCCCCCCSc1nc(NCC2CCN(C)CC2)nc(N(CCCCCCCCCCCC)CCCCCCCCCCCC)n1 [D10S12^2N12]	3.4
CCCCCCCCCCCNc1nc(NCCCN(C)C)nc(SCCCCCCC)n1 [Compound D6S7N11]	18.9
CCCCCCCCCNc1nc(NCC2CCN(C)CC2)nc(SCCCCCCCCC)n1 [Compound D10S9N9]	70.0
CCCCCCCNc1nc(NCC2CCN(C)CC2)nc(SCCCCCC)n1 [Compound D10S6N7]	5.5
CCCCCCCCCCCCSc1nc(NCCCCCCCC)nc(NCCCN2CCOCC2)n1 [Compound D8S12N8]	2.3
CCCCCCCCCCCCCCCCSc1nc(NCCCCCCCCCCCCCCC)nc(NCCN2CCCC2)n1 [Compound D3S16N15]	0.0
CCCCCCCCCCCCNc1nc(NCC2CCN(C)CC2)nc(SCCCCCCCCCCCC)n1 [Compound D10S12N12]	31.5
CCCCCCCCCCCCNc1nc(NCCN2CCCC2)nc(SCCCCCCCCCCCC)n1 [Compound D3S12N12]	10.8
CCCCCCCCCCCCSc1nc(NCCCN2CCN(C)CC2)nc(SCCCCCCC)n1 [Compound D9S7S12]	26.4

SMILES	Absolute mRNA transfection efficiency in HEK293 cells [%]
CCCCCCCCCCSc1nc(NCCCCCCCCC)nc(NCCCN(C)C)n1 [Compound D6S10N9]	8.7
CCCCCCCCCNc1nc(NCCN(C)C)nc(SCCCCCCCCC)n1 [Compound D1S9N9]	8.0
CCCCCCCCCSc1nc(NCCN(CC)CC)nc(SCCCCCCCC)n1 [Compound D7S8S9]	11.1
CCCCCCCCCCSc1nc(NCCCN2CCN(C)CC2)nc(SCCCCCCCC)n1 [Compound D9S8S10]	79.4
CCCCCCCCCCCCCCCCCCSc1nc(NCCCN2CCN(C)CC2)nc(SCCCCCC)n1 [Compound D9S6S18]	62.8
CCCCCCCCCCSc1nc(NCCCCCC)nc(NCCN(CC)CC)n1 [Compound D7S10N6]	0.6
CCCCCCCCCCCCNc1nc(NCCN2CCOCC2)nc(SCCCCCCC)n1 [Compound D2S7N12]	3.0
CCCCCCCCCCCCCNc1nc(NCCN(C)C)nc(SCCCCCCC)n1 [Compound D1S7N13]	12.8
CCCCCCCCCCCCNc1nc(NCC2CCN(C)CC2)nc(SCCCCCCC)n1 [Compound D10S7N12]	63.7
CCCCCCCCCCCCSc1nc(NCCCN2CCOCC2)nc(SCCCCCC)n1 [Compound D8S6S12]	11.1
CCCCCCCCCSc1nc(NCCN2CCCCC2)nc(SCCCCCC)n1 [Compound D4S6S9]	0.7
CCCCCCCCCCCCSc1nc(NCCN2CCOCC2)nc(SCCCCCCCC)n1 [Compound D2S8S12]	1.1
CCCCCCCCCCCCCCCNc1nc(NCCCN2CCOCC2)nc(SCCCCCCCCCC)n1 [Compound D8S10N15]	0.2
CCCCCCCCCCCSc1nc(NCCCCCCC)nc(NCCN2CCN(C)CC2)n1 [Compound D5S11N7]	8.5
CCCCCCCCCSc1nc(NCCCCCC)nc(NCCN(CC)CC)n1 [Compound D7S9N6]	0.6
CCCCCCCCCCCCCNc1nc(NCCN(CC)CC)nc(SCCCCCCC)n1 [Compound D7S7N13]	1.2
CCCCCCCCCCCNc1nc(NCCN2CCN(C)CC2)nc(SCCCCCC)n1 [Compound D5S6N11]	5.3
CCCCCCCCCCCCSc1nc(NCCCN(C)C)nc(SCCCCCCC)n1 [Compound D6S7S12]	93.8
CCCCCCCCCCCCCCCCNc1nc(NCCN2CCCCC2)nc(SCCCCCCCCCCCCCCCC)n1 [Compound D4S16N16]	3.6
CCCCCCCNc1nc(NCCCN(C)C)nc(SCCCCCCC)n1 [Compound D6S7N7]	1.8
CCCCCCCCCCCCCCCCCCSc1nc(NCCN2CCCC2)nc(N(CCCCCCCCCCCC)CCCCCCCCCCCC)n1 [D3S18^2N12]	0.1
CCCCCCCCCCCCCCCSc1nc(NCCCN2CCN(C)CC2)nc(SCCCCCC)n1 [Compound D9S6S15]	6.5
CCCCCCCCCCCCCCCCSc1nc(NCCCCCCCCC)nc(NCCN2CCCC2)n1 [Compound D3S16N9]	92.8

SMILES	Absolute mRNA transfection efficiency in HEK293 cells [%]
CCCCCCCCCCCSc1nc(NCCCCCCC)nc(NCCN(C)C)n1 [Compound D1S11N7]	11.7
CCCCCCCNc1nc(NCCCN2CCN(C)CC2)nc(SCCCCCCC)n1 [Compound D9S7N7]	2.5
CCCCCCCCCCCNc1nc(NCCN2CCCCC2)nc(SCCCCCCC)n1 [Compound D4S7N11]	1.0
CCCCCCCCCCCCCCCSc1nc(NCCCCCCCCC)nc(NCCN(C)C)n1 [Compound D1S15N9]	96.3
CCCCCCCCCCCCCCCCNc1nc(NCCCN2CCOCC2)nc(SCCCCCCCCCCCC)n1 [Compound D8S12N16]	0.7
CCCCCCCCCCCCNc1nc(NCCCN2CCOCC2)nc(SCCCCCC)n1 [Compound D8S6N12]	2.0
CCCCCCCNc1nc(NCCN(C)C)nc(SCCCCCCC)n1 [Compound D1S7N7]	4.4
CCCCCCCCCCCNc1nc(NCCN2CCCC2)nc(SCCCCCCCCC)n1 [Compound D3S9N11]	47.8
CCCCCCCCCCCCCCCCSc1nc(NCCCCCCCCCCC)nc(NCCN2CCOCC2)n1 [Compound D2S16N11]	4.1
CCCCCCCCCCCCCCCSc1nc(NCCN2CCN(C)CC2)nc(N(CCCCCCCCCCCC)CCCCCCCCCCCC)n1 [D5S15^2N12]	0.9
CCCCCCCCCCCCCCCNc1nc(NCCN(CC)CC)nc(SCCCCCCCCCCCCCCC)n1 [Compound D7S15N15]	1.8
CCCCCCCCCCCCCCCCCCNc1nc(NCCCN2CCN(C)CC2)nc(SCCCCCCCCCCCCCCCCCC)n1 [Compound D9S18N18]	0.1
CCCCCCCCSc1nc(NCCN(C)C)nc(SCCCCCC)n1 [Compound D1S6S8]	0.7
CCCCCCCCCCCSc1nc(NCCCCCC)nc(NCCCN2CCOCC2)n1 [Compound D8S11N6]	2.8
CCCCCCCCCCSc1nc(NCCN(CC)CC)nc(SCCCCCC)n1 [Compound D7S6S10]	2.7
CCCCCCCCCCCCCCCCSc1nc(NCCCCCCCCCCCCC)nc(NCCCN(C)C)n1 [Compound D6S16N13]	0.5
CCCCCCCCCCCCCNc1nc(NCCN(CC)CC)nc(SCCCCCCCCCC)n1 [Compound D7S10N13]	13.7
CCCCCCCCCCCSc1nc(NCC2CCN(C)CC2)nc(SCCCCCCC)n1 [Compound D10S7S11]	60.8
CCCCCCCCCCCCSc1nc(NCCCCCCCCCCC)nc(NCCN(CC)CC)n1 [Compound D7S12N11]	4.4
CCCCCCCCCCCCNc1nc(NCCN2CCOCC2)nc(SCCCCCCCC)n1 [Compound D2S8N12]	7.0
CCCCCCCCCCCCCCCCCCSc1nc(NCCCCCCCCCCC)nc(NCCN2CCN(C)CC2)n1 [Compound D5S18N11]	1.1
